Results taken from US5556744A, “Methods and compositions for diagnosing and treating certain HIV infected patients” (The Trustees of the University of Pennsylvania, priority 1994, dated 1996).

Legend:
[1] = tested on: maternal HIV+ sera (antibodies); test: RIA / ELISA binding of maternal HIV+ sera to gp120 and gp41 peptides (Example 3); set-up: species or system human
Procedure, shortened: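 Peptides were coated at 10 μg/ml in carbonate buffer pH 9.6 and blocked with 1% BSA. Sera at 1:50 and 1:500 were incubated overnight at 4°C and detected with ¹²⁵I anti-human IgG (RIA) or HRP/TMB at OD450 (ELISA). Specific binding was taken as peptide minus no-peptide wells, scored as a ratio to normal human serum.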

[2] = tested on: maternal sera (antibodies); test: ELISA peptide-binding of maternal sera (Example 6); set-up: species or system human; details: for Number of Non-Transmitters which bound to peptide / Percent of Non-Transmitters which bound to peptide: N = 12; for Number of Transmitters which bound to peptide / Percent of Transmitters which bound to peptide: N = 4
Procedure, shortened: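 Third-trimester maternal sera, from HIV-1 transmitting and non-transmitting mothers, were tested by ELISA against ~16-residue peptides spanning HIV-1 external and transmembrane glycoproteins. Each serum was run with at least 40 peptides, and values are the percentage of sera binding each peptide.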

[3] = Serum No. 1, Non-Transmission Group
[4] = Serum No. 2, Non-Transmission Group
[5] = Serum No. 3, Non-Transmission Group
[6] = Serum No. 4, Transmission Group
[7] = Serum No. 5, Transmission Group
[8] = Serum No. 6, Non-Transmission Group
[9] = Serum No. 7, Non-Transmission Group
[10] = Serum No. 8, Non-Transmission Group
[11] = Serum No. 9, Non-Transmission Group
[12] = Serum No. 10, Transmission Group
[13] = Serum No. 11, Non-Transmission Group
[14] = Serum No. 12, Non-Transmission Group
[15] = Serum No. 13, Transmission Group
[16] = Serum No. 14, Transmission Group
[17] = Serum No. 15, Transmission Group
[18] = Serum No. 16, Non-Transmission Group
[19] = Serum No. 17, Non-Transmission Group
[20] = Serum No. 18, Non-Transmission Group
[21] = Serum No. 19, Transmission Group
[22] = Serum No. 20, Non-Transmission Group

IGALFLGFGAAGST [Peptide 117]
Binding of maternal HIV+ serum to peptide (sera/NHS ratio) [1, 3]: - (specific OD450 or cpm of sera sample binding to peptide divided by the specific OD450 or cpm of NHS sample binding to peptide, which value is less than 2) | Binding of maternal HIV+ serum to peptide (sera/NHS ratio) [1, 4]: - (specific OD450 or cpm of sera sample binding to peptide divided by the specific OD450 or cpm of NHS sample binding to peptide, which value is less than 2) | Binding of maternal HIV+ serum to peptide (sera/NHS ratio) [1, 5]: - (specific OD450 or cpm of sera sample binding to peptide divided by the specific OD450 or cpm of NHS sample binding to peptide, which value is less than 2) | Binding of maternal HIV+ serum to peptide (sera/NHS ratio) [1, 6]: - (specific OD450 or cpm of sera sample binding to peptide divided by the specific OD450 or cpm of NHS sample binding to peptide, which value is less than 2) | Binding of maternal HIV+ serum to peptide (sera/NHS ratio) [1, 7]: - (specific OD450 or cpm of sera sample binding to peptide divided by the specific OD450 or cpm of NHS sample binding to peptide, which value is less than 2) | Binding of maternal HIV+ serum to peptide (sera/NHS ratio) [1, 8]: - (specific OD450 or cpm of sera sample binding to peptide divided by the specific OD450 or cpm of NHS sample binding to peptide, which value is less than 2) | Binding of maternal HIV+ serum to peptide (sera/NHS ratio) [1, 9]: - (specific OD450 or cpm of sera sample binding to peptide divided by the specific OD450 or cpm of NHS sample binding to peptide, which value is less than 2) | Binding of maternal HIV+ serum to peptide (sera/NHS ratio) [1, 10]: - (specific OD450 or cpm of sera sample binding to peptide divided by the specific OD450 or cpm of NHS sample binding to peptide, which value is less than 2) | Binding of maternal HIV+ serum to peptide (sera/NHS ratio) [1, 11]: - (specific OD450 or cpm of sera sample binding to peptide divided by the specific OD450 or cpm of NHS sample binding to peptide, which value is less than 2) | Binding of maternal HIV+ serum to peptide (sera/NHS ratio) [1, 12]: - (specific OD450 or cpm of sera sample binding to peptide divided by the specific OD450 or cpm of NHS sample binding to peptide, which value is less than 2) | Binding of maternal HIV+ serum to peptide (sera/NHS ratio) [1, 13]: - (specific OD450 or cpm of sera sample binding to peptide divided by the specific OD450 or cpm of NHS sample binding to peptide, which value is less than 2) | Binding of maternal HIV+ serum to peptide (sera/NHS ratio) [1, 14]: - (specific OD450 or cpm of sera sample binding to peptide divided by the specific OD450 or cpm of NHS sample binding to peptide, which value is less than 2) | Binding of maternal HIV+ serum to peptide (sera/NHS ratio) [1, 15]: - (specific OD450 or cpm of sera sample binding to peptide divided by the specific OD450 or cpm of NHS sample binding to peptide, which value is less than 2) | Binding of maternal HIV+ serum to peptide (sera/NHS ratio) [1, 16]: - (specific OD450 or cpm of sera sample binding to peptide divided by the specific OD450 or cpm of NHS sample binding to peptide, which value is less than 2) | Binding of maternal HIV+ serum to peptide (sera/NHS ratio) [1, 17]: - (specific OD450 or cpm of sera sample binding to peptide divided by the specific OD450 or cpm of NHS sample binding to peptide, which value is less than 2) | Binding of maternal HIV+ serum to peptide (sera/NHS ratio) [1, 18]: - (specific OD450 or cpm of sera sample binding to peptide divided by the specific OD450 or cpm of NHS sample binding to peptide, which value is less than 2) | Binding of maternal HIV+ serum to peptide (sera/NHS ratio) [1, 19]: - (specific OD450 or cpm of sera sample binding to peptide divided by the specific OD450 or cpm of NHS sample binding to peptide, which value is less than 2) | Binding of maternal HIV+ serum to peptide (sera/NHS ratio) [1, 20]: - (specific OD450 or cpm of sera sample binding to peptide divided by the specific OD450 or cpm of NHS sample binding to peptide, which value is less than 2) | Binding of maternal HIV+ serum to peptide (sera/NHS ratio) [1, 21]: - (specific OD450 or cpm of sera sample binding to peptide divided by the specific OD450 or cpm of NHS sample binding to peptide, which value is less than 2) | Binding of maternal HIV+ serum to peptide (sera/NHS ratio) [1, 22]: - (specific OD450 or cpm of sera sample binding to peptide divided by the specific OD450 or cpm of NHS sample binding to peptide, which value is less than 2) | Number of Non-Transmitters which bound to peptide [2]: 2 | Percent of Non-Transmitters which bound to peptide [2]: 16.7% | Number of Transmitters which bound to peptide [2]: 0 | Percent of Transmitters which bound to peptide [2]: 0%

NYTSLIHSLIEESQNQ [Peptide 41]
Binding of maternal HIV+ serum to peptide (sera/NHS ratio) [1, 3]: - (specific OD450 or cpm of sera sample binding to peptide divided by the specific OD450 or cpm of NHS sample binding to peptide, which value is less than 2) | Binding of maternal HIV+ serum to peptide (sera/NHS ratio) [1, 4]: - (specific OD450 or cpm of sera sample binding to peptide divided by the specific OD450 or cpm of NHS sample binding to peptide, which value is less than 2) | Binding of maternal HIV+ serum to peptide (sera/NHS ratio) [1, 5]: - (specific OD450 or cpm of sera sample binding to peptide divided by the specific OD450 or cpm of NHS sample binding to peptide, which value is less than 2) | Binding of maternal HIV+ serum to peptide (sera/NHS ratio) [1, 6]: - (specific OD450 or cpm of sera sample binding to peptide divided by the specific OD450 or cpm of NHS sample binding to peptide, which value is less than 2) | Binding of maternal HIV+ serum to peptide (sera/NHS ratio) [1, 7]: - (specific OD450 or cpm of sera sample binding to peptide divided by the specific OD450 or cpm of NHS sample binding to peptide, which value is less than 2) | Binding of maternal HIV+ serum to peptide (sera/NHS ratio) [1, 8]: - (specific OD450 or cpm of sera sample binding to peptide divided by the specific OD450 or cpm of NHS sample binding to peptide, which value is less than 2) | Binding of maternal HIV+ serum to peptide (sera/NHS ratio) [1, 9]: - (specific OD450 or cpm of sera sample binding to peptide divided by the specific OD450 or cpm of NHS sample binding to peptide, which value is less than 2) | Binding of maternal HIV+ serum to peptide (sera/NHS ratio) [1, 10]: - (specific OD450 or cpm of sera sample binding to peptide divided by the specific OD450 or cpm of NHS sample binding to peptide, which value is less than 2) | Binding of maternal HIV+ serum to peptide (sera/NHS ratio) [1, 11]: - (specific OD450 or cpm of sera sample binding to peptide divided by the specific OD450 or cpm of NHS sample binding to peptide, which value is less than 2) | Binding of maternal HIV+ serum to peptide (sera/NHS ratio) [1, 12]: - (specific OD450 or cpm of sera sample binding to peptide divided by the specific OD450 or cpm of NHS sample binding to peptide, which value is less than 2) | Binding of maternal HIV+ serum to peptide (sera/NHS ratio) [1, 13]: - (specific OD450 or cpm of sera sample binding to peptide divided by the specific OD450 or cpm of NHS sample binding to peptide, which value is less than 2) | Binding of maternal HIV+ serum to peptide (sera/NHS ratio) [1, 14]: - (specific OD450 or cpm of sera sample binding to peptide divided by the specific OD450 or cpm of NHS sample binding to peptide, which value is less than 2) | Binding of maternal HIV+ serum to peptide (sera/NHS ratio) [1, 15]: - (specific OD450 or cpm of sera sample binding to peptide divided by the specific OD450 or cpm of NHS sample binding to peptide, which value is less than 2) | Binding of maternal HIV+ serum to peptide (sera/NHS ratio) [1, 16]: - (specific OD450 or cpm of sera sample binding to peptide divided by the specific OD450 or cpm of NHS sample binding to peptide, which value is less than 2) | Binding of maternal HIV+ serum to peptide (sera/NHS ratio) [1, 17]: - (specific OD450 or cpm of sera sample binding to peptide divided by the specific OD450 or cpm of NHS sample binding to peptide, which value is less than 2) | Binding of maternal HIV+ serum to peptide (sera/NHS ratio) [1, 18]: - (specific OD450 or cpm of sera sample binding to peptide divided by the specific OD450 or cpm of NHS sample binding to peptide, which value is less than 2) | Binding of maternal HIV+ serum to peptide (sera/NHS ratio) [1, 19]: - (specific OD450 or cpm of sera sample binding to peptide divided by the specific OD450 or cpm of NHS sample binding to peptide, which value is less than 2) | Binding of maternal HIV+ serum to peptide (sera/NHS ratio) [1, 20]: - (specific OD450 or cpm of sera sample binding to peptide divided by the specific OD450 or cpm of NHS sample binding to peptide, which value is less than 2) | Binding of maternal HIV+ serum to peptide (sera/NHS ratio) [1, 21]: - (specific OD450 or cpm of sera sample binding to peptide divided by the specific OD450 or cpm of NHS sample binding to peptide, which value is less than 2) | Binding of maternal HIV+ serum to peptide (sera/NHS ratio) [1, 22]: - (specific OD450 or cpm of sera sample binding to peptide divided by the specific OD450 or cpm of NHS sample binding to peptide, which value is less than 2) | Number of Non-Transmitters which bound to peptide [2]: 0 | Percent of Non-Transmitters which bound to peptide [2]: 0% | Number of Transmitters which bound to peptide [2]: 0 | Percent of Transmitters which bound to peptide [2]: 0%
